How the values were obtained:
MATIN [1] = test: Herbicidal pre-emergence action 2a (greenhouse pots, visual scoring); format: in vivo, Matricaria inodora; conditions: dosage 320 g/ha, visual scoring after about 3 weeks vs untreated controls
Description: (§1) [table] a) Seeds of monocotyledonous and dicotyledonous weed plants and crop plants are placed in plastic or organic plant pots and covered with soil. The compounds of the invention, formulated in the form of wettable powders (WP) or as emulsion concentrates (EC), are then applied onto the surface of the covering soil as aqueous suspension or emulsion with addition of 0.5% additive at a water application rate of 600 1/ha (converted). After the treatment, the pots are placed in a greenhouse and kept under good growth conditions for the trial plants. After about 3 weeks, the effect of the preparations is scored visually in comparison with untreated controls as percentages. For example, 100% activity=the plants have died, 0% activity=like control plants. Tables B1 to B15 below show the effects of selected compounds of the general formula (I) according to Tables 1 and 2 on various harmful plants and an application rate corresponding to 320 g/ha and/or 80 g/ha, which were obtained by the experimental procedure mentioned above.

AMARE [2] = test: as above; format: in vivo, Amaranthus retroflexus; conditions: dosage 320 g/ha, visual scoring after about 3 weeks vs untreated controls
Description: as §1

VIOTR = test: as above; format: in vivo, Viola tricolor; conditions: dosage 320 g/ha, visual scoring after about 3 weeks vs untreated controls
Description: as §1

ALOMY [3] = test: Herbicidal post-emergence action 1a (greenhouse pots, visual rating); format: in vivo, Alopecurus myosuroides; conditions: rated visually about 3 weeks after treatment, 100% = plants have died, 0% = like control plants
Protocol: (§2) [table] a) Seeds of monocotyledonous and dicotyledonous weeds and crop plants are placed in sandy loam in plastic or organic plant pots, covered with soil and cultivated in a greenhouse under controlled growth conditions. 2 to 3 weeks after sowing, the test plants are treated at the one-leaf stage. The compounds of the invention, formulated in the form of wettable powders (WP) or as emulsion concentrates (EC), are then sprayed onto the green parts of the plants as aqueous suspension or emulsion with addition of 0.5% additive at a water application rate of 600 1/ha (converted). After the test plants have been kept in the greenhouse under optimum growth conditions for about 3 weeks, the activity of the preparations is rated visually in comparison to untreated controls. For example, 100% activity=the plants have died, 0% activity=like control plants. Tables A1 to A15 below show the effects of selected compounds of the general formula (I) according to Tables 1 and 2 on various harmful plants and an application rate corresponding to 320 g/ha and/or 80 g/ha, which were obtained by the experimental procedure mentioned above.

MATIN [4] = test: as above; format: in vivo, Matricaria inodora; conditions: dosage 320 g/ha, visual rating about 3 weeks after treatment
Protocol: as §2

ABUTH = test: as above; format: in vivo, Abutilon theophrasti; conditions: visual rating about 3 weeks after treatment
Protocol: as §2

VERPE [5] = test: as above; format: in vivo, Veronica persica; conditions: visual rating about 3 weeks after treatment
Protocol: as §2

SETVI [6] = test: as above; format: in vivo, Setaria viridis; conditions: rated visually about 3 weeks after treatment, 100% = plants have died, 0% = like control plants
Protocol: as §2

SETVI [7] = test: Herbicidal pre-emergence action 2a (greenhouse pots, visual scoring); format: in vivo, Setaria viridis; conditions: dosage 320 g/ha, visual scoring after about 3 weeks vs untreated controls
Description: as §1

LOLRI [8] = test: as above; format: in vivo, Lolium rigidum; conditions: dosage 320 g/ha, visual scoring after about 3 weeks vs untreated controls
Description: as §1

AVEFA [9] = test: Herbicidal post-emergence action 1a (greenhouse pots, visual rating); format: in vivo, Avena fatua; conditions: rated visually about 3 weeks after treatment, 100% = plants have died, 0% = like control plants
Protocol: as §2

LOLRI [10] = test: as above; format: in vivo, Lolium rigidum; conditions: Dosage 320 g/ha; rated visually about 3 weeks after treatment; 100% = plants have died, 0% = like control plants
Protocol: as §2

ECHCG = test: as above; format: in vivo, Echinochloa crus-galli; conditions: Dosage 320 g/ha; rated visually about 3 weeks after treatment; 100% = plants have died, 0% = like control plants
Protocol: as §2

AMARE [11] = test: as above; format: in vivo, Amaranthus retroflexus; conditions: visual rating about 3 weeks after treatment
Protocol: as §2

ALOMY [12] = test: Herbicidal pre-emergence action 2a (greenhouse pots, visual scoring); format: in vivo, Alopecurus myosuroides; conditions: dosage 320 g/ha, visual scoring after about 3 weeks
Description: as §1

VERPE [13] = test: as above; format: in vivo, Veronica persica; conditions: dosage 320 g/ha, visual scoring after about 3 weeks vs untreated controls
Description: as §1

POLCO [14] = test: Herbicidal post-emergence action 1a (greenhouse pots, visual rating); format: in vivo, Polygonum convolvulus; conditions: visual rating about 3 weeks after treatment
Protocol: as §2

POLCO [15] = test: Herbicidal pre-emergence action 2a (greenhouse pots, visual scoring); format: in vivo, Polygonum convolvulus; conditions: dosage 320 g/ha, visual scoring after about 3 weeks vs untreated controls
Description: as §1

AVEFA [16] = test: as above; format: in vivo, Avena fatua; conditions: dosage 320 g/ha, visual scoring after about 3 weeks
Description: as §1

| SMILES | Pre-emergence action against MATIN in % (MATIN [1]) | Pre-emergence action against AMARE in % (AMARE [2]) | Post-emergence action against ALOMY in % (ALOMY [3]; Dosage 80 g/ha) | Post-emergence action against ALOMY in % (ALOMY [3]; Dosage 320 g/ha) | Post-emergence action against MATIN in % (MATIN [4]) | Post-emergence action against SETVI in % (SETVI [6]; Dosage 320 g/ha) | Pre-emergence action against SETVI in % (SETVI [7]) | Pre-emergence action against LOLRI in % (LOLRI [8]) | Post-emergence action against AVEFA in % (AVEFA [9]; Dosage 320 g/ha) | Post-emergence action against ECHCG in % (ECHCG) | Post-emergence action against AMARE in % (AMARE [11]; dosage 320 g/ha) | Pre-emergence action against ALOMY in % (ALOMY [12]) | Pre-emergence action against VERPE in % (VERPE [13]) | Post-emergence action against POLCO in % (POLCO [14]; dosage 320 g/ha) | other results |
| --- | --- | --- | --- | --- | --- | --- | --- | --- | --- | --- | --- | --- | --- | --- | --- |
| CCOC(=O)COc1nn(-c2nccnc2F)c(-c2ccc(F)nc2)c1Br [Example I-76] | 90% | 90% |  |  |  |  |  |  |  |  |  |  |  |  |  |
| COC(=O)COc1nn(-c2nccnc2F)c(-c2ccc(F)nc2)c1Br [Example I-77] | 80% | 80% |  |  |  |  |  |  |  |  |  |  |  |  | Pre-emergence action against VIOTR in % (VIOTR): 80% |
| O=C(O)COc1nn(-c2cnccn2)c(-c2ccc(F)nc2)c1C1CC1 [Example I-83] |  |  | 80% | 80% | 80% |  |  |  |  |  |  |  |  |  |  |
| COC(=O)[C@@H](C)Oc1nn(-c2cnccn2)c(-c2ccc(F)nc2)c1I [Example I-89] |  | 100% | 80% | 100% | 80% | 90% | 100% | 100% | 100% | 80% | 90% | 100% | 100% | 90% | Post-emergence action against ABUTH in % (ABUTH; dosage 80 g/ha): 90%; Post-emergence action against ABUTH in % (ABUTH; dosage 320 g/ha): 90%; Post-emergence action against VERPE in % (VERPE [5]; dosage 80 g/ha): 80%; Post-emergence action against VERPE in % (VERPE [5]; dosage 320 g/ha): 90%; Post-emergence action against AVEFA in % (AVEFA [9]; Dosage 80 g/ha): 90%; Post-emergence action against LOLRI in % (LOLRI [10]): 100%; Post-emergence action against AMARE in % (AMARE [11]; dosage 80 g/ha): 90%; Post-emergence action against POLCO in % (POLCO [14]; dosage 80 g/ha): 90% |
| COC(=O)CNC(=O)[C@@H](C)Oc1nn(-c2cnccn2)c(-c2ccc(F)nc2)c1Br [II-03] |  | 100% | 80% | 90% |  | 90% | 100% | 100% | 90% | 80% | 90% | 100% | 100% | 80% | Pre-emergence action against POLCO in % (POLCO [15]): 90%; Post-emergence action against SETVI in % (SETVI [6]; Dosage 80 g/ha): 90%; Pre-emergence action against AVEFA in % (AVEFA [16]): 100% |
